# Biological target: T1, LRRK2 (Homo sapiens, UniProt Q5S007, G2019S)
# T1 construct: purchased Invitrogen PV4882 (lot 567054A)
# Assay: In Vitro LRRK2 Assay (LabChip 3000, fluorescently-labeled peptide substrate, ATP)
# Type: biochemical
# Conditions: read-out: LRRK2 Ki (KI), Table 8
# Outline: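 LRRK2, fluorescent peptide substrate (diluted to 4 μM before mixing), ATP and compound were incubated 2 h in the dark, then stopped. Phosphorylated and unphosphorylated peptide were separated by capillary electrophoresis and quantified by fluorescence. Ki was fitted with a tight-binding equation including enzyme concentration, S and Km; IC50 or percent inhibition were also reported.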
# T1 sequence (Q5S007 whole entry G2019S): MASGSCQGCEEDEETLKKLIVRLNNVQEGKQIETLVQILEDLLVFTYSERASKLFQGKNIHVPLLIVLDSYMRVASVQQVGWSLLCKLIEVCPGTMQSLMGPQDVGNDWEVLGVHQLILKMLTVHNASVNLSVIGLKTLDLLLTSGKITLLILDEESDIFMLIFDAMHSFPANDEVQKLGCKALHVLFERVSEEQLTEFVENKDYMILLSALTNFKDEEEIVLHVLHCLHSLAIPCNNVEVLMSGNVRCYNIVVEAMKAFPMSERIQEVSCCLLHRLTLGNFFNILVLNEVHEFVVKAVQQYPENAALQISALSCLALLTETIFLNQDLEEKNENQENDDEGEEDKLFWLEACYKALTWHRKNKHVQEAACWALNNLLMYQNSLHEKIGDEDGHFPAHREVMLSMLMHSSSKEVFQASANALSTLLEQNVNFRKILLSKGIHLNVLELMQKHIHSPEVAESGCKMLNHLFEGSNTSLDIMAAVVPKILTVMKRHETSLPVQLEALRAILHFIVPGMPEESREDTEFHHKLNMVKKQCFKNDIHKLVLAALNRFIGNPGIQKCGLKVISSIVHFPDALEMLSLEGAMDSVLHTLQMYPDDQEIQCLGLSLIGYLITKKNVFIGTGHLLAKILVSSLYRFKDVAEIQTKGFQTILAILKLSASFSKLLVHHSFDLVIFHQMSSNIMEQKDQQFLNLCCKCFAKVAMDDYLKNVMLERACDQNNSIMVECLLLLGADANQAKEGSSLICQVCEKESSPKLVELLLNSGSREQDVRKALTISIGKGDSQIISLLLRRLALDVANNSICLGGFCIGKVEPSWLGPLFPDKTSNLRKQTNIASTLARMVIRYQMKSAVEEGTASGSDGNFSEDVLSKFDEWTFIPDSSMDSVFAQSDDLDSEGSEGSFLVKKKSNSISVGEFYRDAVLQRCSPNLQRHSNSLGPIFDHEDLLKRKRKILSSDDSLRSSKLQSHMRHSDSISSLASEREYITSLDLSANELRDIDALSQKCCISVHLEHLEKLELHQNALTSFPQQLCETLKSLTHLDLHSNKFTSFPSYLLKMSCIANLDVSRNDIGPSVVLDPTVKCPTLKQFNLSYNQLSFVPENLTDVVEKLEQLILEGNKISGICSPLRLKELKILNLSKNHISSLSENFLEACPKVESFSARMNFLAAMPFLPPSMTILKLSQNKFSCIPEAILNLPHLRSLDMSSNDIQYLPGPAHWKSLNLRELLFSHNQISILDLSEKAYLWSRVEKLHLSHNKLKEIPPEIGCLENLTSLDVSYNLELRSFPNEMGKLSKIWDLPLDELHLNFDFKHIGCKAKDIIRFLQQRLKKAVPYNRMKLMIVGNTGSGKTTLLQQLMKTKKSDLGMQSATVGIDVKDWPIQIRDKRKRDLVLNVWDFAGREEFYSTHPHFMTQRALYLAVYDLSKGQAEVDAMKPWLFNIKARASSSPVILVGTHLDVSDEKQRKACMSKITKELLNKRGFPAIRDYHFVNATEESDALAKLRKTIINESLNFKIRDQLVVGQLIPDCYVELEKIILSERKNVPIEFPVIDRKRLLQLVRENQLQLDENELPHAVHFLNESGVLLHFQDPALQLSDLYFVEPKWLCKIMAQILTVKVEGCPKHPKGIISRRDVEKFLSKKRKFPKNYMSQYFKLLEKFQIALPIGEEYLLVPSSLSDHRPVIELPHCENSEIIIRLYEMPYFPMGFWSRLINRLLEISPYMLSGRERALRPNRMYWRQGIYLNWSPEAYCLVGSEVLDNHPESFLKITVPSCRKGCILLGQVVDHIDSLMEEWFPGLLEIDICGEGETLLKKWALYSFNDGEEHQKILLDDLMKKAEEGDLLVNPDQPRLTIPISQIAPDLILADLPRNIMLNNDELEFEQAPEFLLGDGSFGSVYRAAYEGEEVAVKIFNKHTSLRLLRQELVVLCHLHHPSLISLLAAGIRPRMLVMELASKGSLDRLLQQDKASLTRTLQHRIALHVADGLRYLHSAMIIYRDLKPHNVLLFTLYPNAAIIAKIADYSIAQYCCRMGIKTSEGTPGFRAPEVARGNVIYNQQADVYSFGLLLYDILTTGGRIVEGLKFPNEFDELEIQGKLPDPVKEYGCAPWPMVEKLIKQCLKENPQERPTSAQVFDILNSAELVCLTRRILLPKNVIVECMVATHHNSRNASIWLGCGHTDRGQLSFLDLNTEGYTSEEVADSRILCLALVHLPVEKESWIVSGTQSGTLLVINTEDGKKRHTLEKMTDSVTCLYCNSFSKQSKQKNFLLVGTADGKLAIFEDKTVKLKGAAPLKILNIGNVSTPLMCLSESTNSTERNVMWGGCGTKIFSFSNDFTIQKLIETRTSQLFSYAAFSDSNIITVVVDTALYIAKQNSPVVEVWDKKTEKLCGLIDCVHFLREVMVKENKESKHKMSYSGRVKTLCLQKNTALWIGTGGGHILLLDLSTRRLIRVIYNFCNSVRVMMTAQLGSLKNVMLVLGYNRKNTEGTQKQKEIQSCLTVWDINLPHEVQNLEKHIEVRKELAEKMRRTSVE
row,SMILES,Ki [nM]
1,"CNc1nc(Nc2cnn(CC3(C)COC3)c2Cl)ncc1C(F)(F)F [Example 180, N2-(5-chloro-1-((3-methyloxetan-3-yl)methyl)-1H-pyrazol-4-yl)-N4-methyl-5-(trifluoromethyl) pyrimidine-2,4-diamine]",5.6
2,"CCNc1nc(Nc2ccn(CC)n2)ncc1C(F)(F)F [Example 186, N4-ethyl-N2-(1-ethyl-1H-pyrazol-3-yl)-5-(trifluoromethyl) pyrimidine-2,4-diamine]",1.9
3,"CNc1nc(Nc2cnn(C[C@H](C)OC)c2C)ncc1C(F)(F)F [Example 187, (S)-N2-(1-(2-methoxypropyl)-5-methyl-1H-pyrazol-4-yl)-N4-methyl-5-(trifluoromethyl) pyrimidine-2,4-diamine]",18.8
4,"CNc1nc(Nc2cn(C3CCCC3OC)nc2C)ncc1C(F)(F)F (centres unmarked) [Example 188, N2-(1-(2-methoxycyclo-pentyl)-3-methyl-1H-pyrazol-4-yl)-N4-methyl-5-(trifluoromethyl) pyrimidine-2,4-diamine]",12
5,"CNc1nc(Nc2cn(C[C@H](C)OC)nc2C)ncc1C(F)(F)F [Example 189, (S)-N2-(1-(2-methoxypropyl)-3-methyl-1H-pyrazol-4-yl)-N4-methyl-5-(trifluoromethyl) pyrimidine-2,4-diamine]",11.8
6,"CNc1nc(Nc2cn(C(C)(C)COC)nc2C)ncc1C(F)(F)F [Example 190, N2-(1-(1-methoxy-2-methylpropan-2-yl)-3-methyl-1H-pyrazol-4-yl)-N4-methyl-5-(trifluoromethyl) pyrimidine-2,4-diamine]",6.9
7,"CNc1nc(Nc2cn(C3CC(C)OC(C)C3)nc2C)ncc1C(F)(F)F (centres unmarked) [Example 191, N2-(1-(2,6-dimethyltetrahydro-2H-pyran-4-yl)-3-methyl-1H-pyrazol-4-yl)-N4-methyl-5-(trifluoromethyl) pyrimidine-2,4-diamine]",84.6
8,"CNc1nc(Nc2cn(C3CCC(OC)C3)nc2C)ncc1C(F)(F)F (centres unmarked) [Example 193, N2-(1-(3-methoxycyclo-pentyl)-3-methyl-1H-pyrazol-4-yl)-N4-methyl-5-(trifluoromethyl) pyrimidine-2,4-diamine]",19
9,"CNc1nc(Nc2cnn(C)c2NC)ncc1C(F)(F)F [Example 194, N4-methyl-N2-(1-methyl-5-(methylamino)-1H-pyrazol-4-yl)-5-(trifluoromethyl) pyrimidine-2,4-diamine]",52.2

# The next lines start with the values.
row,Ki [nM],SMILES
1,0.82,"CCNc1nc(Nc2cnn(C3CCN(C(=O)C(C)C)CC3)c2C)ncc1C(F)(F)F [Example 181, l-(4-(4-(4-(ethylamino)-5-(trifluoromethyl)pyrimidin-2-ylamino)-5-methyl-1H-pyrazol-1-yl)piperidin-1-yl)-2-methylpropan-1-one]"
2,1.5,"CCNc1nc(Nc2cn(C3CN(C4COC4)C3)nc2C)ncc1C(F)(F)F [Example 182, N4-ethyl-N2-(3-methyl-1-(1-(oxetan-3-yl)azetidin-3-yl)-1H-pyrazol-4-yl)-5-(trifluoromethyl) pyrimidine-2,4-diamine]"
3,0.6,"CCNc1nc(Nc2cn(C3CCN(C(=O)C4CC4)CC3)nc2C)ncc1C(F)(F)F [Example 183, cyclopropyl(4-(4-(4-(ethylamino)-5-(trifluoromethyl)pyrimidin-2-ylamino)-3-methyl-1H-pyrazol-1-yl)piperidin-1-yl)methanone]"
4,4.7,"CCNc1nc(Nc2cnn(C3CCN(C(=O)C4CC4)CC3)c2C)ncc1C(F)(F)F [Example 184, cyclopropyl(4-(4-(4-(ethylamino)-5-(trifluoromethyl)pyrimidin-2-ylamino)-5-methyl-1H-pyrazol-1-yl)piperidin-1-yl)methanone]"
5,6.3,"CNc1nc(Nc2cnn(C[C@@H](C)OC)c2C)ncc1C(F)(F)F [Example 192, (R)-N2-(1-(2-methoxypropyl)-5-methyl-1H-pyrazol-4-yl)-N4-methyl-5-(trifluoromethyl) pyrimidine-2,4-diamine]"

# From US8815882B2, “Pyrazole aminopyrimidine derivatives as LRRK2 modulators” (Genentech, Inc., priority 2010, dated 2014)
